According to patent publication US5567694A, “17-Aryl and 17-heterocyclyl-5β,14β-androstane derivatives active on the cardiovascular system, processes for their preparation and pharmaceutical compositions containing same” (SIGMA-TAU Industrie Farmaceutiche Riunite S.p.A., priority 1992, dated 1996):

Key:
Na^+,K^+ -ATPase [1] = assay type: binding; settings: ^3 H-ouabain displacement, purified Na^+,K^+ -ATPase receptor
Text: (§1) To test the affinity for the receptor site of the Na^+,K^+ -ATPase and the inhibitory activity on the enzyme, the following tests were used:
a) displacement of the specific ^3 H-ouabain binding from the Na^+,K^+ -ATPase receptor purified according to Jorghensen (Jorghensen P., BBA, 1974, 356, 36) and Erdmann ( Erdmann E. et al., Arzneim. Forsh., 1984, 34, 13 14);

Na^+,K^+ -ATPase [2] = assay type: biochemical; design: unit not given here; settings: hydrolysis of ^32 P-ATP, purified Na^+,K^+ -ATPase
Text: as §1
b) inhibition of the activity of the purified Na^+,K^+ -ATPase measured as % of hydrolysis of ^32 P-ATP in presence and in absence of the tested compound (Doucet A. et al., Am.

[3] = system: spontaneous hypertensive rats of the Milan (MHS); assay: systolic blood pressure and heart rate in spontaneous hypertensive rats (MHS), indirect tail-cuff; assay type: in vivo, rat; settings: for SBP (systolic blood pressure) / HR (heart rate): MHS rats, n = 7, 20 mg/Kg/os daily for ten days in METHOCEL 0.5% w/v; for SBP (systolic blood pressure): controls 172 +/- 2.0; for HR (heart rate): controls 328 +/- 8.6
Protocol: The ability of these compounds to lower blood pressure was tested by using animal models with genetic arterial hypertension, in particular, spontaneous hypertensive rats of the Milan (MHS) (Bianchi G., Ferrari P., Barber B., The Milan Hypertensive strain. In Handbook of hypertension. Vol.4: Experimental and genetic models of hypertension. Ed. W. de jong-Elsevier Science Publishers B.V.,1984: 328-349).
The procedure adopted to test the antihypertensive activity of the compounds on the above mentioned model was the following:
systolic blood pressure (SBP) and heart rate (HR) were measured by an indirect tail-cuff method in three-month old hypertensive rats (MHS) before beginning the treatment (basal values). The rats were then subdivided in two groups of at least 7 animals each, one receiving the compound the other, the control group, receiving only the vehicle. The compound, suspended in METHOCEL 0.5% (w/v), was administered daily by mouth, for ten days. SBP and HR were measured daily 6 and 24 hours after the treatment. At the end of the ten day treatment period, a washout period of at least two days was carried out, in order to check for how long the SBP was mantained low or the basal values were re-established.

| SMILES | Binding ^3 H-Ouab. Displacement log IC50 (Na^+,K^+ -ATPase [1]) | Inhibitory Activity log IC50 (Na^+,K^+ -ATPase [2]) | SBP (systolic blood pressure) [3] | HR (heart rate) [3] | antihypertensive action ([3]; statement in words) |
| --- | --- | --- | --- | --- | --- |
| C[C@]12CC[C@H](O)C[C@H]1CC[C@@H]1[C@@H]2CC[C@]2(C)[C@@](O)(c3ccsc3)CC[C@]12O [Comp. 1-ba, 17β-(3-Thienyl)-5β-androstane-3β,14β,17α-triol] | 5.7 | 4.5 | – | – | – |
| C[C@]12CC[C@H](O)C[C@H]1CC[C@@H]1[C@@H]2CC[C@]2(C)[C@@](O)(c3cccnc3)CC[C@]12O [Comp. 1-bb, 17β-(3-Pyridyl)-5β-androstane-3β,14β,17α-triol] | 5.4 | 4.3 | 154 +/- 3.0 mm Hg | 339 +/- 6.8 beats/min. | – |
| C[C@]12CC[C@H](O)C[C@H]1CC[C@@H]1[C@@H]2CC[C@]2(C)[C@@](O)(c3ccccc3)CC[C@]12O [Comp. I-ac, 17β-Phenyl-5β-androstane-3β,14β,17α-triol] | 5.4 | 4.1 | 160 +/- 4.5 mm Hg | 331 +/- 8.5 beats/min. | – |
| C[C@]12CC[C@H](OCCO)C[C@H]1CC[C@@H]1[C@@H]2CC[C@]2(C)[C@@](O)(c3ccccc3)CC[C@]12O [Comp. I-ad, 3β-(2-Hydroxyethoxy)-17β-phenyl-5β-androstane-14β,17α-diol] | 5.2 | 4.0 | – | – | – |
| CN(C)CCCO[C@H]1CC[C@@]2(C)[C@H](CC[C@@H]3[C@@H]2CC[C@]2(C)[C@@](O)(c4ccccc4)CC[C@]32O)C1 [Comp. I-ae, 3β-(3-Dimethylaminopropoxy)-17β-phenyl-5β-androstane-14β,17α-diol] | 5.9 | 4.7 | – | – | – |
| C[C@]12CC[C@H](OCCCN)C[C@H]1CC[C@@H]1[C@@H]2CC[C@]2(C)[C@@](O)(c3ccccc3)CC[C@]12O [Comp. I-ag, 3β-(3-Aminopropoxy)-17β-phenyl-5β-androstane-14β,17α-diol] | 5.9 | 4.6 | 157 +/- 4.2 mm Hg | 330 +/- 9.8 beats/min. | – |
| C[C@]12CC[C@H](OCCN3CCCC3)C[C@H]1CC[C@@H]1[C@@H]2CC[C@]2(C)[C@@](OCCN3CCCC3)(c3ccccc3)CC[C@]12O [Comp. I-ai, 3β,17α-Bis(2-(1-pyrrolidinyl)ethoxy)-17β-phenyl-5β-androstan-14β-ol] | 5.0 | – | – | – | – |
| CNCCO[C@H]1CC[C@@]2(C)[C@H](CC[C@@H]3[C@@H]2CC[C@]2(C)[C@@](O)(c4ccccc4)CC[C@]32O)C1 [Comp. I-am, 3β-(2-Methylaminoethoxy)-17β-phenyl-5β-androstane-14β,17α-diol] | 5.9 | 4.8 | – | – | – |
| C[C@]12CC[C@H](OCC(O)CO)C[C@H]1CC[C@@H]1[C@@H]2CC[C@]2(C)[C@@](O)(c3ccccc3)CC[C@]12O (stereo partly drawn) [Comp. I-ao, 3β-((2RS)-2,3-Dihydroxypropoxy)-17β-phenyl-5β-androstane-14β,17α-diol] | 5.5 | 4.2 | – | – | – |
| C[C@]12CC[C@H](OCC(N)CN)C[C@H]1CC[C@@H]1[C@@H]2CC[C@]2(C)[C@@](O)(c3ccccc3)CC[C@]12O (stereo partly drawn) [Comp. I-ap, 3β-((2RS)-2,3-Diaminopropoxy)-17β-phenyl-5β-androstane-14β,17α-diol] | 5.8 | 4.6 | – | – | – |
| C[C@]12CCC(=NNC(=N)N)C[C@H]1CC[C@@H]1[C@@H]2CC[C@]2(C)[C@@](O)(c3ccccc3)CC[C@]12O [Comp. I-ar, 3-Guanidinoimino-17β-phenyl-5β-androstane-14β,17α-diol] | 5.8 | 4.6 | – | – | – |
| COc1ccc([C@@]2(O)CC[C@]3(O)[C@@H]4CC[C@@H]5C[C@@H](O)CC[C@]5(C)[C@H]4CC[C@]23C)cc1 [Comp. I-au, 17β-(4-Methoxyphenyl)-5β-androstane-3β,14β,17α-triol] | 5.6 | 4.5 | 156 +/- 4.1 mm Hg | 335 +/- 10.5 beats/min. | – |
| CCN(CC)CCO[C@H]1CC[C@@]2(C)[C@H](CC[C@@H]3[C@@H]2CC[C@]2(C)[C@@](O)(c4ccc(OC)cc4)CC[C@]32O)C1 [Comp. I-av, 3β-(2-Diethylaminoethory)-17β-(4-methoxyphenyl)-5β-androstane-14β,17α-diol] | 6.0 | 4.8 | – | – | – |
| C[C@]12CC[C@H](O)C[C@H]1CC[C@@H]1[C@@H]2CC[C@]2(C)[C@@](O)(c3ccc(O)cc3)CC[C@]12O [Comp. I-ay, 17β-(4-Hydroxyphenyl)-5β-androstane-3β,14β,17α-triol] | 5.6 | 4.5 | – | – | – |
| Cc1ncc([C@@]2(O)CC[C@]3(O)[C@@H]4CC[C@@H]5C[C@@H](O)CC[C@]5(C)[C@H]4CC[C@]23C)n1C [Comp. I-be, 17β-(1,2-Dimethyl-5-imidazolyl)-5β-androstane-3β,14β,17α-triol] | 5.4 | – | – | – | – |
| CN(C)c1ccc([C@@]2(O)CC[C@]3(O)[C@@H]4CC[C@@H]5C[C@@H](O)CC[C@]5(C)[C@H]4CC[C@]23C)cc1 [Comp. I-bf, 17β-(4-(N,N-Dimethylaminophenyl))-5β-androstane-3β,14β,17α-triol] | 5.7 | 4.6 | – | – | – |
| C[C@]12CC[C@H](SCCCN)C[C@H]1CC[C@@H]1[C@@H]2CC[C@]2(C)[C@@](O)(c3ccccc3)CC[C@]12O [Comp. I-bj] | 5.7 | 4.6 | – | – | – |
| C[C@]12CC[C@H](O)C[C@H]1CC[C@@H]1[C@@H]2CC[C@]2(C)[C@@](O)(C3=CC(=O)OC3)CC[C@]12O [Ref. comp., 3β,14β,17α-trihydroxy-5β-card-20(22)-enolide, reference compound] | 5.9 | 5.3 | 174 +/- 2.1 mm Hg | 340 +/- 10.2 beats/min. | do not show antihypertensive action |
